Assay [1] deals with Replicase polyprotein 1ab (Severe acute respiratory syndrome-related coronavirus, UniProt P0C6X7). Nature of the assay: Inhibition of SARS-CoV 3C-like protease by FRET based microplate assay.
Assay [2] relates to SARS-CoV. Description: Antiviral activity against SARS coronavirus. The assay is classed as functional, organism-based. The note with it: Severe acute respiratory syndrome-related coronavirus.

For orientation: IC50 means the concentration at which inhibition is half-maximal. A higher IC50 goes with a need for much substance.

For `CCOC(=O)/C=C/[C@H](C[C@@H]1CCNC1=O)NC(=O)[C@@H](CC(=O)[C@@H](NC(=O)c1cc(C)on1)C(C)C)Cc1ccccc1`, the half-inhibitory concentration (IC50) in assay [1] stood at 870 µM; in assay [2] it was 45 µM.

For `CCOC(=O)/C=C/[C@H](C[C@@H]1CCNC1=O)NC(=O)[C@H](CC=C(C)C)CC(=O)[C@@H](NC(=O)c1cc(C)on1)C(C)C`, the IC50 was determined as 800 µM in assay [1] and 70 µM in assay [2].

On to `CCOC(=O)/C=C/[C@H](C[C@@H]1CCNC1=O)NC(=O)[C@H](Cc1ccccc1)NC(=O)[C@@H](NC(=O)[C@H](CO)NC(=O)OC(C)(C)C)C(C)C`, for which the results for the IC50 in assay [1] and in assay [2] were 15 µM and 100 µM, respectively.

The compound `CCOC(=O)/C=C/[C@H](C[C@@H]1CCNC1=O)NC(=O)[C@H](Cc1ccccc1)NC(=O)[C@@H](NC(=O)c1cc(C)on1)C(C)C` came in with a half-maximal inhibitory concentration (IC50) in assay [1] of 300 µM.

Turning to `CCOC(=O)/C=C/[C@H](C[C@@H]1CCNC1=O)NC(=O)[C@H](CC=C(C)C)CC(=O)[C@@H](NC(=O)[C@H](CO)NC(=O)OC(C)(C)C)C(C)C`, the results for the IC50 in assay [1] and in assay [2] were 80 µM and 75 µM, respectively.

`CCOC(=O)/C=C/[C@H](C[C@@H]1CCNC1=O)NC(=O)[C@H](CC(C)C)NC(=O)[C@@H](NC(=O)c1cc(C)on1)C(C)C` came in with an IC50 in assay [1] of 200 µM.

For `CCOC(=O)/C=C/[C@H](C[C@@H]1CCNC1=O)NC(=O)[C@H](CC(C)C)NC(=O)[C@@H](NC(=O)[C@H](CO)NC(=O)OC(C)(C)C)C(C)C`, the IC50 in assay [1] stood at 10 µM; in assay [2] it was 100 µM.

For the origin of these results see ChEMBL document CHEMBL1137503, “Structure-based design, synthesis, and biological evaluation of peptidomimetic SARS-CoV 3CLpro inhibitors” (Bioorg Med Chem Lett, 2007).
